In ChEMBL document CHEMBL1147020, “Low molecular weight indole fragments as IMPDH inhibitors” (Bioorg Med Chem Lett, 2006):
Activity calls are given as the source filed them. The rule behind the calls is not given here.

What follows are compounds tested against T1, Inosine-5'-monophosphate dehydrogenase 2 (Homo sapiens, UniProt P12268) (assay: Inhibition of IMPDH2).

| SMILES | IC50 |
| --- | --- |
| Nc1ccc2c(-c3cncs3)c[nH]c2c1 | 27.9 µM |
| O=Cc1c[nH]c2ccccc12 [3-FORMYLINDOLE] | 22.7 µM |
| N#Cc1c[nH]c2ccccc12 | 20.9 µM |
| COc1cc(N)ccc1-c1cnco1 | 8.2 µM |

Now from value to compound:

| IC50 | SMILES |
| --- | --- |
| 7.66 µM | Cn1cc(C#N)c2ccccc21 |
| 6.84 µM | Cn1cc(C=O)c2ccccc21 |
| 6.21 µM | Cn1cc(-c2ccoc2)c2ccccc21 |
| 5.84 µM | c1ccc2c(-c3ccoc3)c[nH]c2c1 |
| 2.32 µM | Nc1ccc2c(-c3ccsc3)c[nH]c2c1 |
| 1.15 µM | c1ccc2c(-c3ccncc3)c[nH]c2c1 |
| 0.637 µM | Nc1ccc2c(-c3ccncc3)c[nH]c2c1 |
| 0.524 µM | Nc1cccc2c(-c3ccncc3)c[nH]c12 |
| 0.419 µM | Cc1[nH]c2cc(N)ccc2c1-c1ccncc1 |
| 0.408 µM | Brc1ccc2c(-c3ccncc3)c[nH]c2c1 |
| 0.343 µM | Cc1[nH]c2ccccc2c1-c1ccncc1 |

These compounds were tested against T1, Inosine-5'-monophosphate dehydrogenase 2 (assay: Inhibition of IMPDH2 at 50 uM).

| inhibition | SMILES |
| --- | --- |
| inactive | Cc1cc(-c2c[nH]c3cc(N)ccc23)ccn1 |
| inactive | NC(=O)c1c[nH]c2ccccc12 |
| inactive | c1cncc(-c2c[nH]c3ccccc23)c1 |
| 50% | Cn1cc(C(N)=O)c2ccccc21 |
| 62% | Cn1cc(-c2ccncc2)c2ccc(Br)cc21 |
